How the values were obtained:
Test in all cases: relative viability (nuclei count vs DMSO), 5 days (fraction); higher = more cells survive
[1] = compound: C/C(=N\NC(=S)N1CCC1)/C2=CC=CC=N2 + CC(C)C[C@H](NC(=O)[C@H](Cc1ccccc1)NC(=O)c1cnccn1)B(O)O [Bortezomib] (partner 0.002 µM)
Procedure, shortened: (§1)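 Relative viability equals treated-well nuclei counts divided by vehicle-well nuclei counts. Counts came from 4× images of lung cancer cell lines grown in 1536-well plates for 5 days after pin-tool dosing on the day after seeding. Dosing used one drug alone or a fixed anchor-drug dose plus five library-drug doses (not always all listed) in √10 steps, and values are medians of duplicate plates.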

[2] = compound: C/C(=N\NC(=S)N1CCC1)/C2=CC=CC=N2 + CS(=O)(=O)N1CCN(Cc2cc3nc(-c4cccc5[nH]ncc45)nc(N4CCOCC4)c3s2)CC1 [Pictilisib] (partner 1 µM)
Procedure, shortened: as §1

[3] = compound: C/C(=N\NC(=S)N1CCC1)/C2=CC=CC=N2 + CC(=O)c1c(C)c2cnc(Nc3ccc(N4CCNCC4)cn3)nc2n(C2CCCC2)c1=O [Palbociclib] (partner 0.5 µM)
Procedure, shortened: as §1

[4] = compound: C/C(=N\NC(=S)N1CCC1)/C2=CC=CC=N2 + COc1cc2c(Oc3ccc(NC(=O)C4(C(=O)Nc5ccc(F)cc5)CC4)cc3F)ccnc2cc1OCCCN1CCOCC1 [Foretinib] (partner 0.25 µM)
Procedure, shortened: as §1

Row | Cell Line | relative viability ([1]; first compound 0.05 µM) | relative viability ([1]; first compound 0.1581 µM) | relative viability ([1]; first compound 0.5 µM) | relative viability ([1]; first compound 1.581 µM) | relative viability ([1]; first compound 5 µM) | relative viability ([2]; first compound 0.05 µM) | relative viability ([2]; first compound 0.1581 µM) | relative viability ([2]; first compound 0.5 µM) | relative viability ([2]; first compound 1.581 µM) | relative viability ([2]; first compound 5 µM) | relative viability ([3]; first compound 0.05 µM) | relative viability ([3]; first compound 0.1581 µM) | relative viability ([3]; first compound 0.5 µM) | relative viability ([3]; first compound 1.581 µM) | relative viability ([3]; first compound 5 µM) | relative viability ([4]; first compound 0.05 µM) | relative viability ([4]; first compound 0.1581 µM) | relative viability ([4]; first compound 0.5 µM) | relative viability ([4]; first compound 1.581 µM) | relative viability ([4]; first compound 5 µM)
1 | NCI-H1650 | 0.177 | 0.2 | 0.182 | 0.188 | 0.168 | 0.17 | 0.214 | 0.186 | 0.165 | 0.193 | 0.17 | 0.119 | 0.138 | 0.138 | 0.163 | 0.185 | 0.225 | 0.175 | 0.205 | 0.215
2 | NCI-H1651 | 0.167 | 0.149 | 0.151 | 0.15 | 0.137 | 0.0849 | 0.0897 | 0.0884 | 0.0807 | 0.0572 | 0.159 | 0.134 | 0.129 | 0.0856 | 0.0851 | 0.136 | 0.142 | 0.127 | 0.0965 | 0.107
3 | NCI-H1666 | 0.218 | 0.271 | 0.232 | 0.198 | 0.221 | 0.158 | 0.22 | 0.234 | 0.176 | 0.2 | 0.617 | 0.608 | 0.564 | 0.495 | 0.509 | 0.439 | 0.365 | 0.345 | 0.348 | 0.331
4 | NCI-H1734 | 0.228 | 0.205 | 0.174 | 0.123 | 0.107 | 0.15 | 0.151 | 0.149 | 0.115 | 0.139 | 0.14 | 0.132 | 0.169 | 0.131 | 0.129 | 0.166 | 0.162 | 0.203 | 0.129 | 0.102
5 | NCI-H1755 | 0.331 | 0.287 | 0.208 | 0.206 | 0.204 | 0.171 | 0.168 | 0.162 | 0.157 | 0.136 | 0.407 | 0.452 | 0.33 | 0.294 | 0.303 | 0.518 | 0.35 | 0.283 | 0.268 | 0.258
6 | NCI-H1915 | 0.319 | 0.182 | 0.159 | 0.149 | 0.137 | 0.208 | 0.189 | 0.17 | 0.144 | 0.153 | 0.166 | 0.159 | 0.138 | 0.12 | 0.124 | 0.366 | 0.675 | 0.216 | 0.192 | 0.173
7 | NCI-H1975 | 0.15 | 0.144 | 0.134 | 0.147 | 0.156 | 0.123 | 0.136 | 0.127 | 0.131 | 0.136 | 0.105 | 0.106 | 0.105 | 0.11 | 0.131 | 0.137 | 0.143 | 0.129 | 0.124 | 0.124
8 | NCI-H1993 | 0.431 | 0.506 | 0.463 | 0.406 | 0.483 | 0.743 | 0.673 | 0.765 | 0.676 | 0.692 | 0.345 | 0.36 | 0.349 | 0.405 | 0.377 | 0.542 | 0.516 | 0.567 | 0.631 | 0.526
9 | NCI-H2009 | 0.117 | 0.126 | 0.138 | 0.122 | 0.0916 | 0.144 | 0.156 | 0.178 | 0.172 | 0.0975 | 0.0949 | 0.102 | 0.108 | 0.112 | 0.0775 | 0.143 | 0.183 | 0.186 | 0.213 | 0.184
10 | NCI-H2023 | 0.096 | 0.0935 | 0.0847 | 0.0887 | 0.0763 | 0.064 | 0.0997 | 0.084 | 0.0661 | 0.0904 | 0.0715 | 0.0684 | 0.0648 | 0.0566 | 0.086 | 0.0821 | 0.0789 | 0.0763 | 0.0636 | 0.077
11 | NCI-H2085 | 0.33 | 0.298 | 0.323 | 0.269 | 0.262 | 0.27 | 0.301 | 0.353 | 0.326 | 0.296 | 0.275 | 0.303 | 0.261 | 0.279 | 0.273 | 0.322 | 0.373 | 0.296 | 0.269 | 0.253
12 | NCI-H2087 | 0.219 | 0.223 | 0.309 | 0.132 | 0.125 | 0.302 | 0.219 | 0.258 | 0.205 | 0.153 | 0.104 | 0.0945 | 0.12 | 0.118 | 0.0998 | 0.185 | 0.178 | 0.193 | 0.15 | 0.121
13 | NCI-H2126 | 0.364 | 0.244 | 0.223 | 0.201 | 0.186 | 0.247 | 0.267 | 0.254 | 0.227 | 0.216 | 0.249 | 0.34 | 0.212 | 0.207 | 0.209 | 0.223 | 0.167 | 0.167 | 0.213 | 0.201
14 | NCI-H2228 | 0.169 | 0.295 | 0.161 | 0.119 | 0.179 | 0.148 | 0.285 | 0.168 | 0.163 | 0.12 | 0.134 | 0.167 | 0.127 | 0.0641 | 0.315 | 0.227 | 0.129 | 0.145 |  | 0.113
15 | NCI-H2347 | 0.299 | 0.329 | 0.401 | 0.268 | 0.263 | 0.275 | 0.311 | 0.286 | 0.275 | 0.253 | 0.323 | 0.305 | 0.282 | 0.277 | 0.29 | 0.321 | 0.391 | 0.312 | 0.31 | 0.28
16 | NCI-H2405 | 0.275 | 0.31 | 0.322 | 0.286 | 0.989 | 0.185 | 0.206 | 0.232 | 0.209 | 0.275 | 0.217 | 0.25 | 0.26 | 0.214 | 0.21 | 0.263 | 0.313 | 0.31 | 0.251 | 0.264

Reference: the supplement of paper PMC10307832
